Legend:
Experiment in all cases: IP kinase assay, GST-P70S6K peptide, anti-p-P70S6K Thr389 immunoblot
Assay type in all cases: biochemical
Details in all cases: […] inhibitor, […] ATP, […] MgCl2, pH […] C; ATP-competitive
mTORC2 = mTORC2 (Homo sapiens, UniProt P42345)
mTORC1 = mTORC1 (Homo sapiens, UniProt P42345)
mTORC3 = mTORC3 (Homo sapiens, UniProt P42345)

Row | SMILES | IP kinase assay, GST-P70S6K peptide, anti-p-P70S6K Thr389 immunoblot (mTORC2) | IP kinase assay, GST-P70S6K peptide, anti-p-P70S6K Thr389 immunoblot (mTORC1) | IP kinase assay, GST-P70S6K peptide, anti-p-P70S6K Thr389 immunoblot (mTORC3)
1 | COc1ccc(-c2ccc3c(N4CCOC[C@@H]4C)nc(N4CCOC[C@@H]4C)nc3n2)cc1CO [AZD-8055] | inhibited the kinase activity of all mTORCs | inhibited the kinase activity of all mTORCs | preincubation with OSI-27 or AZD-8055 at an mTOR-specific concentration inhibited the kinase activity
2 | COc1cccc2cc(-c3nc([C@H]4CC[C@H](C(=O)O)CC4)n4ncnc(N)c34)[nH]c12 [OSI-27] | inhibited the kinase activity of all mTORCs | inhibited the kinase activity of all mTORCs | preincubation with OSI-27 or AZD-8055 at an mTOR-specific concentration inhibited the kinase activity

— paper PMC6156121 (Science Advances, 2018)
